Measurements published in patent US20110275643A1, “AROYLQUINOLINE COMPOUNDS” (NATIONAL HEALTH RESEARCH INSTITUTES, priority 2010, published 2011).
Like-named read-outs stand apart in the source and are kept apart here.

How the values were obtained:
[1] = tested on: oral epidermoid carcinoma KB cells; experiment: In vitro cell growth inhibition, methylene blue dye assay, KB cells; format: cell-based, Human
Description: (§1) Human oral epidermoid carcinoma KB cells, non-small-cell lung carcinoma H460 cells, colorectal carcinoma HT29 cells and stomach carcinoma MKN45 cells were maintained in RMPI-1640 medium supplied with 5% fetal bovine serum (FBS). […] Cells in logarithmic phase were cultured at a density of 5000 cells/mL/well in a 24-well plate. KB-VIN10 cells were cultured in drug-free medium for 3 days prior to use. The cells were exposed to various concentrations of the test drugs for 72 hours. The methylene blue dye assay was used to evaluate the effect of the test compounds on cell growth (Finlay et al., 1984).

[2] = tested on: non-small-cell lung carcinoma H460 cells; experiment: In vitro cell growth inhibition, methylene blue dye assay, H460 cells; format: cell-based, Human; details: read-out: IC50 on the proliferation of cells, H460
Description: as §1

[3] = tested on: colorectal carcinoma HT29 cells; experiment: In vitro cell growth inhibition, methylene blue dye assay, HT29 cells; format: cell-based, Human; details: read-out: IC50 on the proliferation of cells, HT29
Description: as §1

[4] = tested on: stomach carcinoma MKN45 cells; experiment: In vitro cell growth inhibition, methylene blue dye assay, MKN45 cells; format: cell-based, Human; details: read-out: IC50 on the proliferation of cells, MKN45
Description: as §1

[5] = tested on: KB-VIN10 cells (overexpression of P-gp170/MDR); experiment: In vitro cell growth inhibition, methylene blue dye assay, MDR-positive KB-VIN10 cells; format: cell-based, Human; details: read-out: IC50 on the proliferation of cells, KB-VIN10
Description: as §1

MAP-rich tubulin = experiment: Tubulin polymerization in vitro assay (turbidimetric); format: biochemical, bovine; details: 37° C., 30 minutes, read-out: Inhibition of tubulin polymerization IC50 ± SD
Description: Turbidimetric assays (Liou et al., 2004; Kuo et al., 2004) of microtubules were performed as described by Bollag et al. 1995. In brief, microtubule-associated protein (MAP)-rich tubulin (from bovine brain, Cytoskeleton, Denver, Col.) has been dissolved in reaction buffer (100 mM PIPES (1,4-piperazinediethanesulfulfonic acid, pH 6.9), 2 mM magnesium chloride (MgCl2), 1 mM GTP (guanosine triphosphate)) in preparing of 4 mg/mL tubulin solution. Tubulin solution (240 μg MAP-rich tubulin per well) was placed in 96-well microtiter plate in the presence of test compounds or 2% (v/v) DMSO (dimethyl sulfoxide) as vehicle control. The increase in absorbance was measured at 350 nm in a PowerWave X Microplate Reader (Bio-Tek Instruments, Winooski, Vt.) at 37° C. and recorded every 30 seconds for 30 minutes.

[6] = tested on: colchicine-binding site of tubulin; experiment: Tubulin competition-binding scintillation proximity assay ([3H]colchicine); details: for Inhibition of [3H]colchicine binding (% ± SD), 1 μM inhibitor / Inhibition of [3H]colchicine binding (% ± SD), 5 μM inhibitor: Tubulin at 1 μM, [3H]colchicine at 5 μM
Description: This assay was performed as described by Tahir et al., 2003. […] Then 80 μg of Streptavidin-labeled SPA (scintillation proximity assay) beads were added to each reaction mixture. Then the radioactive counts were directly measured by a scintillation counter.

[7] = tested on: five cancer cell lines (KB, H460, HT29, MKN45, KB-VIN10); experiment: Antiproliferative activity, mean over five cancer cell lines; format: cell-based, Human; details: for IC50: Homo sapiens, read-out: mean IC50 value against five cancer cell lines
Description: The synthesized compounds 5 to 17 were evaluated for antiproliferative activities against four carcinoma cells, oral epidermoid carcinoma KB cells, non-small-cell lung carcinoma H460 cells, colorectal carcinoma HT29 cells and stomach carcinoma MKN45 cells, as well as the MDR-positive cell lines KB-VIN10, that overexpressed P-gp 170/MDR (Table 1). The controls were compounds 1 and 3.
as §1

[8] = Homo sapiens, KB, 72 h, read-out: IC50 on the proliferation of cells, KB
[9] = Homo sapiens, KB cells, 72 hours, mean ± SD, read-out: IC50 on the proliferation of cells, KB
[10] = Homo sapiens, NCI-H460, H460 cells, 72 hours, mean ± SD
[11] = Homo sapiens, HT-29, HT29 cells, 72 hours, mean ± SD
[12] = Homo sapiens, MKN-45, MKN45 cells, 72 hours, mean ± SD
[13] = Homo sapiens, KB-VIN10 cells, 72 hours, mean ± SD
[14] = mean of KB, H460, HT29, MKN45, KB-VIN10

Row | SMILES | IC50 [1, 8] [nM] | IC50 ([2]; Homo sapiens, NCI-H460, 72 h) [nM] | IC50 ([3]; Homo sapiens, HT-29, 72 h) [nM] | IC50 ([4]; Homo sapiens, MKN-45, 72 h) [nM] | IC50 ([5]; Homo sapiens, KB-VIN10, 72 h) [nM] | IC50 (MAP-rich tubulin) [nM] | Inhibition of [3H]colchicine binding (% ± SD), 1 μM inhibitor [6] [%] | Inhibition of [3H]colchicine binding (% ± SD), 5 μM inhibitor [6] [%] | IC50 [7] [nM] | melting point [°C] | IC50 [1, 9] [nM] | IC50 [2, 10] [nM] | IC50 [3, 11] [nM] | IC50 [4, 12] [nM] | IC50 [5, 13] [nM] | IC50 [7, 14] [nM] | other results
1 | COc1cc(C(=O)c2ccc3c(N)c(OC)ccc3n2)cc(OC)c1OC [Compound 15, 5-amino-6-methoxy-2-(3′,4′,5′-trimethoxybenzoyl)quinoline] | 0.3 ± 0.1 | 0.4 ± 0.3 | 0.4 ± 0.2 | 0.3 ± 0.2 | 0.2 ± 0.1 | 1600 | 90 ± 0.5 | 97 ± 1 | 0.32 | 184.3 to 185.2 |  |  |  |  |  |  | IC50 ([1]; Homo sapiens, KB, read-out: 50% Inhibition concentration (IC50) on the proliferation of KB cells line): 0.31 nM; binding to the colchicine-binding domain in words ([6]; [3H]-colchicine binding assay): strongly bound to the colchicine-binding domain; fold improvement in the IC50 value over compound 12 ([7]; versus compound 12): > 100 fold
2 | COc1ccc2nc(C(=O)c3cc(OC)c(OC)c(OC)c3)ccc2c1 [Compound 12, 6-methoxy-2-(3′,4′,5′-trimethoxybenzoyl)quinoline] | 27.2 ± 9.8 | 61.5 ± 20.5 | 77 ± 5.7 | 150 ± 31.2 | 21.5 ± 0.6 | 3500 | 40 ± 3 | 68 ± 2 | 67 | 143 to 145 |  |  |  |  |  |  | 
3 | COc1cc(C(=O)c2ccc3ccccc3n2)cc(OC)c1OC [Compound 5, 2-(3′,4′,5′-trimethoxybenzoyl)quinoline] |  |  |  |  |  | > 10000 |  |  |  | 158 to 159 | 174 ± 33.1 | 180 ± 25.5 | 148 ± 17 | 246 ± 32.7 | 117 ± 23.7 | 173 | 
4 | COc1cc(C(=O)c2ccc3ncccc3c2)cc(OC)c1OC [Compound 9, 6-(3′,4′,5′-trimethoxybenzoyl)quinoline] |  |  |  |  |  | 2900 | 51 ± 3 | 72 ± 3 |  | 132 to 134 | 24 ± 6.1 | 36 ± 5.5 | 24.6 ± 3 | 16.3 ± 4.5 | 21.5 ± 7.7 | 24.4 | 
5 | COc1ccc2cc(C(=O)c3cc(OC)c(OC)c(OC)c3)ccc2n1 [Compound 14, 2-methoxy-6-(3′,4′,5′-trimethoxybenzoyl)quinoline] |  |  |  |  |  | > 10000 |  |  |  | 182 to 183 | 301 ± 64.4 | 256 ± 34.6 | 206 ± 4.9 | 138 ± 54.4 | 202 ± 26.2 | 220 | 
6 | COc1ccc(/C=C\c2cc(OC)c(OC)c(OC)c2)cc1O [Compound 1, combretastatin A-4, reference compound] |  |  |  |  |  | […] | 87 ± 1 | 95 ± 2 |  |  |  |  |  |  |  |  | IC50 ([1]; KB cells, 72 hours, mean ± SD, read-out: IC50 on the proliferation of cells, KB): 2.4 ± 0.2 nM; IC50 ([2]; H460 cells, 72 hours, mean ± SD): 2.6 ± 0.3 nM; IC50 ([3]; HT29 cells, 72 hours, mean ± SD): 835 ± 54 nM; IC50 ([4]; MKN45 cells, 72 hours, mean ± SD): 4.9 ± 0.2 nM; IC50 ([5]; KB-VIN10 cells, 72 hours, mean ± SD): 1.9 ± 0.4 nM
